From US20230103300A1, “TOPICAL PHARMACEUTICAL COMPOSITION IN GEL FORM COMPRISING AT LEAST AMI[…] USE IN THE TREATMENT OF CORONAVIRUS-INDUCED NEUROPATHIC PAIN” (AlgoTherapeutix, priority 2021, published 2023)

Assay: Comparative ex vivo study of the percutaneous absorption of amitriptyline (Frantz cell)
Format: in vitro ADME
Conditions: ex vivo human skin, topical application
Protocol: Comparative ex vivo study of the percutaneous absorption of amitriptyline in a formulation A in aqueous gel form (invention) and in a formulation B in cream form (comparative).
Each of compositions A and B was applied on separate human skin samples. For each composition, the experiment was repeated 3 times with 3 skin samples from 3 different donors, i.e., 9 samples.
The skin samples are mounted in a Frantz cell and are heated to a surface temperature of 32° C.±1° C.
Composition A or B is spread evenly using a spatula on each skin sample at a rate of 10 mg per cell, corresponding to 5 mg/cm^2 of skin.
The skin samples are rinsed 16 hours after application.
Each skin sample was placed with a tweezers on a paper towel (dermis facing downward).
The stratum corneum is removed using adhesive strips.
After removing the stratum corneum, the sample is perforated. The epidermis is then separated from the dermis. Each of them is placed in separate bottles.
The different samples were then extracted.

CN(C)CCC=C1c2ccccc2CCc2ccccc21 [amitriptyline, Amitriptyline]
systemic passage of amitriptyline: less than 0.1 % of the administered dose
